Reference: PMC5955599, “The HTLV-1 gp21 fusion peptide inhibits antigen specific T-cell activation in-vitro and in mice” (PLoS Pathogens, 2018)
“Also recorded” adds a separate entry of the source.

Tests used:
[1] = tested on: MOG35-55–antigen specific T-cells; test: In-vitro T-cell proliferative response (H3-thymidine incorporation); type: cell-based, mouse (C57Bl/6J); conditions: peptide at 10μM; for inhibition of T-cell proliferation, activation by MOG35-55 presenting APCs: irradiated MOG35-55 presenting APCs, mean inhibition of proliferation; for inhibition of T-cell proliferation, activation by PMA and Ionomycin: 50ng/mL PMA with 1μM ionomycin; for inhibition of T-cell proliferation, activation by antibodies against CD3 and CD28: CD3 and CD28 antibodies 2μg/ml
[2] = Circular dichroism spectroscopy with CDNN secondary structure analysis; type: physicochemical; conditions: 25μM peptide in 5mM HEPES buffer with 1% LPC; for Antiparallel β-Sheet / Parallel β-Sheet / Random-coil / α-Helix / β-turn: CD 190–260 nm, CDNN, relative amount of structure out of 100%; for secondary structure in a membrane mimetic environment: CD
Method: Fig 6 Detection of the immune modulatory region within the HTLV FP. (A) Sequences of shorter peptides derived from the full length HTLV FP. (B) MOG35-55–antigen specific T-cells were activated by APCs in the presence of HTLV FP derived peptides at 10μM and proliferative responses were assessed as described above. […] The data is presented as mean inhibition of proliferation. n = 12. (C) MOG35-55–antigen specific T cells were activated by either (i) irradiated MOG35-55 presenting APCs (black), (ii) antibodies against CD3 and CD28 (white), or (iii) PMA and Ionomycin (gray) in the presence of HTLV FP5-13 and HIV FP5-13 at 10μM. Proliferative responses were assessed as described above. The HTLV FP inhibits T-cell proliferation induced either through the TCR or downstream from the TCR with equal potencies. The data is presented as mean inhibition of proliferation. n = 12. […] CD spectra were measured at 25μM in 5mM HEPES buffer containing 1% lyso-phosphatidylcholine (LPC). […] (E) MOG35-55–antigen specific T-cells were activated by APCs in the presence of HTLV FP5-13 D/L enantiomers at 10μM and proliferative responses were assessed as described above. Both HTLV FP5-13 enantiomers inhibit T-cells proliferation with equal potencies. The data is presented as mean inhibition of proliferation. n = 12. One-way ANOVA was used for statistical analysis. *P<0.05;**P<0.01;***P<0.001.

[3] = tested on: MOG35-55–antigen specific T-cells; test: T-bet and Gata3 expression detected by FACS; type: cell-based, mouse (C57Bl/6J); conditions: peptide at 10μM, APC activation, n = 3
Method: (A-B) MOG35-55–antigen specific T-cells were activated by irradiated MOG35-55 presenting APCs, in the presence of the HTLV FP at 10μM. Total RNA was isolated 24 hours following activation and mRNA expression levels were determined by qRT-PCR. The values of each gene were normalized to Rpl13a as a housekeeping control. The HTLV FP reduces TBX21 (T-bet) mRNA expression and elevates GATA3 mRNA expression. The data is presented as arbitrary units. n≥3. (C-H) MOG35-55–antigen specific T-cells were activated by irradiated MOG35-55 presenting APCs, in the presence of either HTLV or HIV FP at 10μM. Samples were fixed in 4% PFA and stained with anti T-bet-APC and anti Gata3-FITC antibodies (C-D) 24, (E-F) 48 and (G-H) 72 hours following activation. Each time point is represented as cell count vs. APC or FITC fluorescence histogram. Analysis was performed using LSR-II flow cytometer (BD) and FlowJo cell analysis software (FlowJo, LLC). The HTLV FP reduces T-bet expression and elevates Gata3 expression. n = 3. One-way ANOVA was used for statistical analysis. ns, not significant; *P<0.05;** P<0.01.
Antigen-specific T-cells were plated onto round 12-well plates (10^6 cells/ well) and activated with 5x10^5 irradiated (25 gray) APC and 5μg/ml of MOG p35-55 in the presence or absence of relevant peptides. Cells were washed with PBS, blocked (5% Donkey serum, 2% BSA and 0.1% Triton in PBS) and fixed with 4% Paraformaldehyde (PFA) 24 hour following activation. Cells were then stained with Gata3-FITC and T-bet-APC fluorochrome-labeled monoclonal mouse antibodies (purchased from Miltenyi Biotec) according to Miltenyi Biotec protocols. Samples were then collected using LSR-II flow cytometer and analyzed with FlowJo cell analysis software.

Sequence	inhibition of T-cell proliferation, activation by MOG35-55 presenting APCs ([1]; n = 12)	inhibition of T-cell proliferation, activation by PMA and Ionomycin ([1]; n = 12)	inhibition of T-cell proliferation, activation by antibodies against CD3 and CD28 ([1]; n = 12)	Antiparallel β-Sheet [2] [%]	Parallel β-Sheet [2] [%]	Random-coil [2] [%]	α-Helix [2] [%]	β-turn [2] [%]	secondary structure in a membrane mimetic environment [2]	further results
VAALTLGLALSVGLTGINVAVSALSHQRLTSLI [BLV FP, bovine leukemia virus fusion peptide, Japanese isolate of BLV-1]	significantly stronger than the BLV FP	–	–	–	–	–	–	–	–	–
AVGMVIFLLVLAIMAMTASVTAAATLVKQHATA [JDV FP, Jembrana disease virus fusion peptide, Tabanan/87 isolate]	showed no inhibitory activity	–	–	–	–	–	–	–	–	–
AVWLVSALA [HTLV FP5-13, segment 5-13 of the HTLV FP]	–	inhibited all three levels of activation	inhibited all three levels of activation	6.7	5.2	17.3	54	16.8	exhibited an α-helical structure	inhibition of T-cell proliferation, activation by MOG35-55 presenting APCs ([1]; n = 12, 10 µM): inhibited all three levels of activation; also recorded: inhibit T-cell proliferation with higher potency than HTLV FP9-22 and HTLV FP14-22; also recorded: inhibited T-cell proliferation with the same potency
VSALAMGAGVAGGI [HTLV FP9-22, segment 9-22 of the HTLV FP]	higher potency than HTLV FP9-22 and HTLV FP14-22	–	–	30.4	11.7	32.6	8.5	16.8	found to be random coils	–
MGAGVAGGI [HTLV FP14-22, segment 14-22 of the HTLV FP]	higher potency than HTLV FP9-22 and HTLV FP14-22	–	–	27.7	11.7	32.5	11.2	17.1	found to be random coils	–
GALFLGFLG [HIV FP5-13, reference compound]	–	significantly diminished when T-cells were activated using CD3 and CD28 antibodies or PMA and Ionomycin	significantly diminished when T-cells were activated using CD3 and CD28 antibodies or PMA and Ionomycin	–	–	–	–	–	–	–
AVGIGALFLGFLGAAGSTMGARSMTLTVQARQL [HIV FP, HIV-1 gp41 fusion peptide, HXB2 isolate, reference compound]	inhibits T-cell proliferation with the same potency as the HIV FP	decreased significantly when activation was downstream of TCRα and β	decreased significantly when activation was downstream of TCRα and β	–	–	–	–	–	–	Gata3 expression (protein), 24 hours ([3]; 24 hours following activation): had no effect on Gata3 expression; T-bet expression (protein), 24 hours ([3]; 24 hours following activation): had no effect on T-bet expression; Gata3 expression (protein), 48 hours ([3]; 48 hours following activation): had no effect on Gata3 expression; T-bet expression (protein), 48 hours ([3]; 48 hours following activation): had no effect on T-bet expression; Gata3 expression (protein), 72 hours ([3]; 72 hours following activation): had no effect on Gata3 expression
